Measurements: patent US10632100B2, “Application of obacunone in preparation of drug for preventing and treating lung damage and pulmonary fibrosis” (GUANGDONG PROVINCIAL HOSPITAL OF TRADITIONAL CHINESE …, priority 2016, dated 2020)

Tests used:
[1] = system: bleomycin-induced lung injury and pulmonary fibrosis; test: Inhibition of bleomycin-induced lung injury and pulmonary fibrosis in vivo (HE and Masson staining of lung tissue); design: species or system C57BL/6 mice; conditions: 10 mg/kg obacunone intraperitoneally 48 hours before each bleomycin injection, lung tissue 7 days after last bleomycin, vs bleomycin group
Procedure: (§1) Eighteen C57BL/6 mice, aged 8 weeks, each weighing 18 to 22 g, were provided by the Laboratory Animal Center of Guangzhou University of Chinese Medicine (Certificate No. 44007200023897).
Bleomycin was intraperitoneally injected into 8-week old B6 mice at a dose of 2 mg/mouse, once per week, three times in total. 48 hours before each injection with bleomycin, corn oil or 10 mg/kg obacunone was intraperitoneally injected into B6 mice in advance. 7 days after the last injection with bleomycin, lung tissue was isolated, fixed, sectioned, HE-stained (see Experiment 8 for details), and Masson-stained.

[2] = system: cytokines IL-6, TGF-β, IL-17, IFN-γ and MCP-1; test: Bleomycin-induced expression of inflammatory factors in lung tissue (qPCR); assay type: in vivo, C57BL/6 mice; conditions: BLM+obacunone injection group vs BLM injection group, FIG. 2
Procedure: as §1
The mRNA levels of cytokines IL-6, TGF-β, IL-17, IFN-γ and MCP-1 were analyzed by qPCR. *P<0.05, **P<0.01 indicated significant differences between the BLM injection group and the normal group; ^# P<0.05, ^## P<0.01 indicated significant differences between the BLM injection group and the BLM+obacunone injection group.

[3] = system: α-smooth muscle actin (α-SMA); test: α-SMA expression in bleomycin-induced pulmonary fibrosis (immunohistochemistry staining); assay type: in vivo, C57BL/6 mice; conditions: after administration of obacunone, compared to the bleomycin group, FIG. 3
Excerpt: as §1
In pulmonary fibrosis TGF-β induced lung interstitial fibroblasts to transform into myofibroblasts, of which the marker is the expression of α-smooth muscle actin (α-SMA). Therefore, in this experiment the effect of obacunone on the expression of α-SMA in lung myofibroblasts was investigated to provide experimental support for the use of obacunone in treatment and prevention of pulmonary fibrosis.
Steps of immunohistochemistry staining are as follows:
1) placing and baking paraffin wax sections in an electrothermal thermostat oven at 60° C. for 30 min;
2) dewaxing the sections with xylene (8 min for each of I and II), hydrating them with decreasing concentrations of ethanol (8 min for each concentration), and washing with water;
3) performing antigen retrieval, and washing the sections with PBS (3 times×3 min);
4) adding Solution A (S-P kit) dropwise, blocking at room temperature for 10 min, and washing the sections with PBS (3 times×3 min);
5) adding Solution B (S-P kit) dropwise, blocking at room temperature for 10 min, and blotting extra liquid;
6) adding a primary antibody dropwise, placing the sections in a wet box overnight at 4° C., and washing the sections with PBS (3 times×3 min); […]

liver and kidney of mice = test: Damage caused by obacunone to liver and kidney of mice (HE staining); assay type: in vivo, C57BL/6 mice; conditions: 10 mg/kg obacunone, twice a week, 6 times in total; tissues 7 days after last injection; FIG. 4
Procedure: as §1
8-week aged B6 mice were injected with corn oil or 10 mg/kg obacunone, twice a week, 6 times in total. 7 days after the last injection, liver and kidney tissues were isolated, fixed, sectioned, and HE-stained (FIG. 4), as described below.
HE (Hematoxylin-eosin) staining: the paraffin wax samples were continuously sectioned with the semi-automated rotary microtome, with a thickness of 3.5 μm; for staining, the sections were baked and dried for 20 min, rinsed with xylene (2 times×10 min), with anhydrous ethanol (2 times×2 min), with 95% ethanol for 1 min, with 80% ethanol for 1 min, with 70% ethanol for 1 min, washed with water for 1 min, then stained with hematoxylin for 8 min, […], washed with water (2 times×1 min), with 0.5% HCl-ethanol for 10 sec, washed with water for 10 min, stained with eosin for 2 min, washed with water for 1 min, with 80% ethanol for 5 sec, with 85% ethanol for 5 sec, with 90% ethanol for 5 sec, with 95% ethanol for 1 min, with anhydrous ethanol (2 times×2 min), with anhydrous ethanol for 3 min, and with xylene (2 times×2 min), and then the staining was completed and the sections were directly mounted with neutral gum.

[4] = system: human colon cancer cells (SW480); conditions: cited from earlier work
[5] = system: human pancreatic cancer cells (Panc-28); conditions: by activating p53; cited from earlier work
arginase = conditions: reciprocally increasing NO production; cited from earlier work

In the case of `CC1(C)OC(=O)C=C[C@]2(C)[C@H]3CC[C@@]4(C)[C@H](c5ccoc5)OC(=O)[C@H]5O[C@]54[C@]3(C)C(=O)C[C@@H]12` [Obacunone], the “HE staining of lung tissue: pathological changes (alveolar shrinkage, inflammatory cell infiltration, wall thickening, bullae, interstitial proliferation)” value ([1]; FIG. 1A) is reported as “significant improvement of the above pathological changes”, the “Masson staining of lung tissue: precipitation of stroma (collagen, fibronectin)” value ([1]; FIG. 1B) is reported as “significant improvement of the above pathological changes” and the “mRNA levels of cytokines IL-6, TGF-β, IL-17, IFN-γ and MCP-1 in lung tissue” value [2] is reported as “repaired these bleomycin-induced changes to a great extent”. For the same molecule, the “expression of α-SMA in lung tissue” value [3] was “significantly reduced”, the “effect on liver and kidney (HE-stained sections)” value (liver and kidney of mice) was “did not apparently affect the liver and kidney of mice” and the “apoptosis of SW480 cells” value ([4]; by activating cytochrome C) was “induced cell apoptosis”. For the same molecule, the “growth of tumor cells (SW480)” value ([4]; by activating p21 to arrest the cell cycle at phases G2/M and G1) was “suppressed growth of tumor cells”, the “apoptosis of Panc-28 tumor cells” value [5] was “induced apoptosis of tumor cells” and the activity of arginase (arginase) was “inhibiting activity of arginase”.
